The record followed here is ChEMBL document CHEMBL1139858, “Design, synthesis, and X-ray structure of potent memapsin 2 (beta-secretase) inhibitors with isophthalamide derivatives as the P2-P3-ligands” (J Med Chem, 2007).

The target of assay [1] is T1, Beta-secretase 1 (Homo sapiens, UniProt P56817).
Description: Inhibition of recombinant memapsin 2
The target of assay [2] is Cathepsin D (Homo sapiens, UniProt P07339).
Description: Inhibition of human cathepsin D
The target of assay [3] is T1, Beta-secretase 1. This is another data set of the same source.
Description: Inhibition of memapsin 2 expressed in CHO cells

Chain of Cathepsin D (P07339 65-162 limits assumed): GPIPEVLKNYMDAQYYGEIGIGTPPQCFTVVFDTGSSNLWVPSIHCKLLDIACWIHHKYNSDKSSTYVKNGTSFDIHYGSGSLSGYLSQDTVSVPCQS
Chain of Cathepsin D (P07339 169-412 limits assumed): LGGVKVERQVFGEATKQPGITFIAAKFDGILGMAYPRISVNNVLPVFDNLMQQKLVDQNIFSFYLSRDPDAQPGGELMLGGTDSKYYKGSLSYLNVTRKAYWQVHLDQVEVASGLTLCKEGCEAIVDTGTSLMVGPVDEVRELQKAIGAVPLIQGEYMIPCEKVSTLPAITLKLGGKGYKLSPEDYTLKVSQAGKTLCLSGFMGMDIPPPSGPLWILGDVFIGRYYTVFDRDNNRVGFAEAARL
T1 sequence (P56817 whole entry): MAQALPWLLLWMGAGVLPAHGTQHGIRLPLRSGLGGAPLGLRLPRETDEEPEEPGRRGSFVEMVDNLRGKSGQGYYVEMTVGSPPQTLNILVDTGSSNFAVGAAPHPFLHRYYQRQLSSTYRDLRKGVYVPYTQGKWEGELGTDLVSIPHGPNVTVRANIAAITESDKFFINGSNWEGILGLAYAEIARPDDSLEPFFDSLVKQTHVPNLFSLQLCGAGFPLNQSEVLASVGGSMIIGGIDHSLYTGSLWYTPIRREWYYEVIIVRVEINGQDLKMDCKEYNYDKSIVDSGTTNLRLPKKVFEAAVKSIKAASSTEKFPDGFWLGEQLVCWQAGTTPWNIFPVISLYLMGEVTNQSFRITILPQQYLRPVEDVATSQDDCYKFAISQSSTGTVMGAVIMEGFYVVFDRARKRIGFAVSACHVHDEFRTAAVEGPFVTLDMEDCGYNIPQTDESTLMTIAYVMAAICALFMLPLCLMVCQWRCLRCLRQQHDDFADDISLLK

In the case of `CCCNC(=O)c1cc(C(=O)N[C@@H](CC(C)C)[C@@H](O)C[C@@H](C)C(=O)N[C@H](C(=O)NC(C)C)C(C)C)cc(N(C)S(C)(=O)=O)c1`, the Ki (usually the equilibrium dissociation constant of an inhibitor or competing ligand from its target) is 52.5 nM in assay [1] and 483 nM in assay [2]. Moreover, in assay [3], inhibition was half-maximal at 3600 nM (IC50).

In assay [1], `CCCNC(=O)c1cccc(C(=O)N[C@@H](CC(C)C)[C@@H](O)C[C@@H](C)C(=O)N[C@H](C(=O)NC(C)C)C(C)C)c1` returned a Ki of 788 nM. This counts as sub-micromolar.

Take `Cc1nc(CNC(=O)c2cc(C(=O)N[C@@H](CC(C)C)[C@@H](O)C[C@@H](C)C(=O)N[C@H](C(=O)NC(C)C)C(C)C)cc(N(C)S(C)(=O)=O)c2)c(C)o1`: the Ki worked out at 1.8 nM in assay [1] and 245 nM in assay [2]. Also, inhibition in assay [3] was half-maximal at 1800 nM (IC50).

`CC(C)C[C@H](NC(=O)c1cc(C(=O)N[C@H](CO)c2ccccc2)cc(N(C)S(C)(=O)=O)c1)[C@@H](O)C[C@@H](C)C(=O)N[C@H](C(=O)NC(C)C)C(C)C`: the Ki in assay [1] came to 438 nM. In assay [3], inhibition was half-maximal at 190000 nM (IC50).

In the case of `Cc1nc(C(C)NC(=O)c2cc(C(=O)N[C@@H](CC(C)C)[C@@H](O)C[C@@H](C)C(=O)N[C@H](C(=O)NC(C)C)C(C)C)cc(N(C)S(C)(=O)=O)c2)c(C)o1` (some centres not stated), the Ki in assay [1] is 27 nM; in assay [2] it was 490 nM. Further, the IC50 (usually the concentration needed to halve the response being measured) in assay [3] stood at 10300 nM.
